The values that follow come from patent publication US8822468B2 (Novartis AG, priority 2008, dated 2014).

SMILES strings stand for the structures.

T1 sequence (P08581 969-1390): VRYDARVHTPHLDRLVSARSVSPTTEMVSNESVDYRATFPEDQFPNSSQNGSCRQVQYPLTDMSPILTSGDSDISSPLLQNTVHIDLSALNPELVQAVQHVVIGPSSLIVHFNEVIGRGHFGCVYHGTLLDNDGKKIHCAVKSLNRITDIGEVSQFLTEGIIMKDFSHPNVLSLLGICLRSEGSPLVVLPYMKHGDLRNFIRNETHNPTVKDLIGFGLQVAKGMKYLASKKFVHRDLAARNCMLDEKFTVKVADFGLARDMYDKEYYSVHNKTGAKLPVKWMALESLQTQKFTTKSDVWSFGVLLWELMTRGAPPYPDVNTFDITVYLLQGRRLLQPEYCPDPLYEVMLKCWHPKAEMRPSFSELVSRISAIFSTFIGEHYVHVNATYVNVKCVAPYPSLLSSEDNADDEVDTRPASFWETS

This experiment has as its target T1, cMET receptor tyrosine kinase (GST-cMET (969-1390)) (Homo sapiens, UniProt P08581).
T1 construct: made in house
In words: EPK cMET profiling assay (LanthaScreen TR-FRET antibody based kinase phosphorylation assay). It is filed as biochemical. The conditions noted are these: purified recombinant GST-cMET (969-1390), 2 μM ATP, 50 nM Fluorescein-PolyEAY, 60 minutes at room temperature; read-out: c-Met IC50. The method, then: A number of compounds of the present invention were assayed in an antibody based kinase phosphorylation assay as follows.
EPK cMET Profiling Assay:
The EPK kinase assay for cMET receptor tyrosine kinase was developed, using the purified recombinant GST-fusion protein, containing the cytoplasmic domain of the enzyme. GST-cMET (969-1390) was purified by affinity chromatography.
The kinase assay is based on the LanthaScreen™ technology. LanthaScreen™ is the detection of Time-Resolved Fluorescence Resonance Energy Transfer (TR-FRET) using lanthanide chelates to measure interactions between various binding partners. In a TR-FRET kinase assay, a long-lifetime lanthanide donor species is conjugated to an antibody that specifically binds to a phosphorylated product of a kinase reaction that is labeled with a suitable acceptor fluorophore. This antibody-mediated interaction brings the lanthanide donor and the acceptor into proximity such that resonance energy transfer can take place, resulting in a detectible increase in the FRET signal.
The kinase reactions were performed in 384 well microtiter plates in a total reaction volume of 9.05 μL. The assay plates were prepared with 0.05 μL per well of test compound in the appropriate test concentration, as described under “preparation of compound dilutions”. The reactions were started by combining 4.5 μL of ATP solution with 4.5 μL of enzyme-substrate mix (consisting of kinase and substrate). The final concentrations in the kinase reactions were 35 mM Tris/HCl, 1 mM DTT, 0.025% Tween20, 10 μM sodium orthovanadate, 0.25% BSA, 0.6% DMSO, 10 mM MgCl2, 3 mM MnCl2, 2 μM ATP, 50 nM Fluorescein-PolyEAY, and 0.3 nM enzyme.
The reactions were incubated for 60 minutes at room temperature and stopped by adding 4.5 μL of stop buffer (50 mM EDTA, 0.04% NP40, 20 mM Tris/HCl).
Subsequently 4.5 μL of detection mix (50 mM Tris/HCl, 2 mM DTT, 0.05% Tween20, 20 μM sodium orthovanadate, 1% BSA, 1.72 μg/ml Tb-PY20 antibody) were added to the stopped reactions. After 30 minutes incubation at room temperature, the plates were measured in a BMG Pherastar fluorescence reader. The effect of compound on the enzymatic activity was in all assays obtained from the linear progress curves and determined from one reading (end point measurement).
Test compounds were dissolved in DMSO (10 mM) and transferred into 1.4 mL flat bottom or V-shaped Matrix tubes carrying a unique 2D matrix. The stock solutions were stored at −20° C. if not used immediately. For the test procedure the vials were defrosted and identified by a scanner whereby a working sheet was generated that guided the subsequent working steps.
Compound dilutions were made in 96 well plates. This format enabled the assay of maximally 40 individual test compounds at 8 concentrations (single points) including 4 reference compounds. The dilution protocol included the production of “pre-dilution plates”, “master plates” and “assay plates”.
Pre-dilution plates: 96 polypropylene well plates were used as pre-dilution plates. A total of 4 pre-dilution plates were prepared including 10 test compounds each on the plate positions A1-A10, one standard compound at A11 and one DMSO control at A12. All dilution steps were done on a HamiltonSTAR robot.
Master plates: 100 μL of individual compound dilutions including standard compound and controls of the 4 “pre-dilution plates” were transferred into a 384 “master plate” including the following concentrations 1,820, […], 182, 54.6, 18.2, 5.46, 1.82 and 0.546 μM, respectively in 90% of DMSO.
Assay plates: Identical “assay plates” were then prepared by pipetting 50 nL each of compound dilutions of the “master plates” into 384-well “assay plates” by means of a HummingBird 384-channel dispenser. These plates were used directly for the assay which was performed in a total volume of 9.05 μL. This led to a final compound concentration of 10, 3.0, 1.0, 0.3, 0.1, 0.03, 0.01 and 0.003 μM and a final DMSO concentration of 0.5% in the assay.
On the technique in general: TR-FRET usually uses a lanthanide donor and a delayed reading to cut background.
For `CC(c1ccc2ncccc2c1Cl)c1cnc2ccc(-c3cnn(CCO)c3)nn12` (racemic) [Example 188, (rac)-2-(4-{3-[1-(5-Chloro-quinolin-6-yl)-ethyl]-imidazo[1,2-b]pyridazin-6-yl}-pyrazol-1-yl)ethanol], the IC50 – broadly, the concentration that inhibits the measured activity by half – was found to be 5.6 nM.
With `CC(c1ccc2nccn2c1)c1cnc2ccc(-c3cnn(CCO)c3)nn12` (racemic) [Example 189, (rac)-2-{4-[3-(1-Imidazo[1,2-a]pyridin-6-yl-ethyl)-imidazo[1,2-b]pyridazin-6-yl]-pyrazol-1-yl}-ethanol], the IC50 worked out at 95 nM.
Turning to `CC(c1ccc2n[nH]cc2c1)c1cnc2ccc(-c3cnn(CCO)c3)nn12` (racemic) [Example 190, (rac)-2-(4-{3-[1-(2H-Indazol-5-yl)-ethyl]-imidazo[1,2-b]pyridazin-6-yl}-pyrazol-1-yl)-ethanol], the IC50 is 56 nM.
The figure for `CC(c1c(F)cc2ncccc2c1F)c1cnc2ccc(-c3cnn(C)c3)nn12` (racemic) [Example 191, (rac)-5,7-Difluoro-6-{1-[6-(1-methyl-1H-pyrazol-4-yl)-imidazo[1,2-b]pyridazin-3-yl]-ethyl}-quinoline] is less than 3 nM; for `CC(c1ccc2ncn(C)c2c1)c1cnc2ccc(-c3cnn(C)c3)nn12` (racemic) [Example 206, (rac)-3-[1-(3-Methyl-3H-benzoimidazol-5-yl)-ethyl]-6-(1-methyl-1H-pyrazol-4-yl)-imidazo[1,2-b]pyridazine] it is 31 nM; for `CC(c1ccc2ncn(CCN3CCCC3)c2c1)c1cnc2ccc(-c3cnn(C)c3)nn12` (racemic) [Example 207, (rac)-6-(1-Methyl-1H-pyrazol-4-yl)-3-{1-[3-(2-pyrrolidin-1-yl-ethyl)-3H-benzoimidazol-5-yl]-ethyl}-imidazo[1,2-b]pyridazine] it is 310 nM.
Regarding `CC(c1ccc(O)cc1)c1cnc2ccc(-c3cnn(CCO)c3)nn12` (racemic) [Example 221, (rac)-4-(1-{6-[1-(2-Hydroxy-ethyl)-1H-pyrazol-4-yl]-imidazo[1,2-b]pyridazin-3-yl}-ethyl)-phenol], the IC50 is 240 nM.
The figure for `CC(c1ccc(O)cc1)c1cnc2ccc(-c3cnn(C)c3)nn12` (racemic) [Example 222, (rac)-4-{1-[6-(1-Methyl-1H-pyrazol-4-yl)-imidazo[1,2-b]pyridazin-3-yl]-ethyl}-phenol] is 250 nM; for `CC(c1ccc2ncccc2c1Cl)c1cnc2ccc(-c3cnn(C4CCNCC4)c3)nn12` (racemic) [Example 223, (rac)-5-Chloro-6-{1-[6-(1-piperidin-4-yl-1H-pyrazol-4-yl)-imidazo[1,2-b]pyridazin-3-yl]-ethyl}-quinoline] it is 33 nM; for `CC(c1ccc2ncccc2c1Cl)c1cnc2ccc(-c3cnn(C)c3)nn12` (racemic) [Example 225, (rac)-5-Chloro-6-{1-[6-(1-methyl-1H-pyrazol-4-yl)-imidazo[1,2-b]pyridazin-3-yl]-ethyl}-quinoline] it is 25 nM.
Regarding `Cn1cc(-c2ccc3ncc(C(O)c4ccc5ncn(C)c5c4)n3n2)cn1` (racemic) [Example 229, (rac)-(3-Methyl-3H-benzoimidazol-5-yl)-[6-(1-methyl-1H-pyrazol-4-yl)-imidazo[1,2-b]pyridazin-3-yl]-methanol], the IC50 stood at 520 nM.
`Cn1cc(-c2ccc3ncc(C(O)c4ccc5ncccc5c4F)n3n2)cn1` (racemic) [Example 247, (rac)-(5-Fluoro-quinolin-6-yl)-[6-(1-methyl-1H-pyrazol-4-yl)-imidazo[1,2-b]pyridazin-3-yl]-methanol]: the concentration for half-maximal inhibition (IC50) came out at 66 nM.
As to `Cn1cc(-c2ccc3ncc(C(O)c4cc5cccnc5cc4F)n3n2)cn1` (racemic) [Example 248, (rac)-7-Fluoro-quinolin-6-yl)-[6-(1-methyl-1H-pyrazol-4-yl)-imidazo[1,2-b]pyridazin-3-yl]-methanol], the IC50 stood at 370 nM.
